Assays:
[1] = system: mutant versus wild-type cell lines of the 44 cell line panel; experiment: Anova analysis of cell panel IC50s against cancer gene changes; standardized mean difference (targetedness); conditions: BRAF oncogene targeting, Figure 5D
[2] = target: panel of more than 300 wild-type and mutant kinases (313 kinase panel) (Homo sapiens, UniProt P00519, T315I); experiment: Kinase profiling in a biochemical assay panel (mobility shift assays and ELISA), %-inhibition at 1 μM; selectivity entropy
[3] = target: panel of more than 300 wild-type and mutant kinases (313 kinase panel) (Homo sapiens, UniProt O75914); experiment: as above; conditions: kinase PAK3; 1 μM
Chain of panel of more than 300 wild-type and mutant kinases (313 kinase panel) (Homo sapiens, UniProt O75914) (O75914 whole entry, change not shown): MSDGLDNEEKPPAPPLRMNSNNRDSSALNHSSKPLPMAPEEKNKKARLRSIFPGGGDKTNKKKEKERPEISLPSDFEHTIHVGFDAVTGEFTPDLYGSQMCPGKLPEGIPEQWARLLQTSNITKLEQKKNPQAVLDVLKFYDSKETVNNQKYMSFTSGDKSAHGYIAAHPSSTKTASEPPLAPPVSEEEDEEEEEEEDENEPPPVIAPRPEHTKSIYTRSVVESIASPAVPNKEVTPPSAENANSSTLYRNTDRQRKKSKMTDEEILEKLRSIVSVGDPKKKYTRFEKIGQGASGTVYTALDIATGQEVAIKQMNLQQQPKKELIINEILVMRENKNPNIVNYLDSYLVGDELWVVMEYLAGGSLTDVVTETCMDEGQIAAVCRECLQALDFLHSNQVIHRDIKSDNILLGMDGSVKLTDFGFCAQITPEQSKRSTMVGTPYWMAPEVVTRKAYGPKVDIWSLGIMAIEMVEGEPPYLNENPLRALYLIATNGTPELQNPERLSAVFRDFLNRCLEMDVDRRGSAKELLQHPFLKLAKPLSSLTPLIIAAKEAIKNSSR

FKBP12 = conditions: value indicates binding interaction with FKBP12; read-out: IC50 (nM) on relevant targets: mTOR; cited from earlier work
[4] = target: T1, panel of more than 300 wild-type and mutant kinases (313 kinase panel) (Homo sapiens, UniProt P42679); experiment: Kinase profiling in a biochemical assay panel (mobility shift assays and ELISA), %-inhibition at 1 μM; selectivity entropy
T1 sequence (P42679 1-507): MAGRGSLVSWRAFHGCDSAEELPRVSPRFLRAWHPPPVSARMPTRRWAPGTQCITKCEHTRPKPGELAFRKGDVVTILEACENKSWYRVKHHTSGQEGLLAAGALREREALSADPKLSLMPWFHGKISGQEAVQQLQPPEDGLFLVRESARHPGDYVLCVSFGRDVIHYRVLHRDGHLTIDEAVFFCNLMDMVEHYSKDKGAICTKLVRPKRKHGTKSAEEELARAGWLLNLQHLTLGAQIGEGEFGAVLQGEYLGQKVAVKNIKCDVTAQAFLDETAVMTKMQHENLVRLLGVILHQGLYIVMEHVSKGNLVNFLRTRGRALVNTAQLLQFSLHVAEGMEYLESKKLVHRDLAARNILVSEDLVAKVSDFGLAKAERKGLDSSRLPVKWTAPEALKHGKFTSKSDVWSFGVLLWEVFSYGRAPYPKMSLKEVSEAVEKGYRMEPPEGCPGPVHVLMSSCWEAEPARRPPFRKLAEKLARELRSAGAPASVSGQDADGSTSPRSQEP

[5] = target: T2, panel of more than 300 wild-type and mutant kinases (313 kinase panel) (Homo sapiens, UniProt O00444); experiment: as above
T2 sequence (O00444 1-970): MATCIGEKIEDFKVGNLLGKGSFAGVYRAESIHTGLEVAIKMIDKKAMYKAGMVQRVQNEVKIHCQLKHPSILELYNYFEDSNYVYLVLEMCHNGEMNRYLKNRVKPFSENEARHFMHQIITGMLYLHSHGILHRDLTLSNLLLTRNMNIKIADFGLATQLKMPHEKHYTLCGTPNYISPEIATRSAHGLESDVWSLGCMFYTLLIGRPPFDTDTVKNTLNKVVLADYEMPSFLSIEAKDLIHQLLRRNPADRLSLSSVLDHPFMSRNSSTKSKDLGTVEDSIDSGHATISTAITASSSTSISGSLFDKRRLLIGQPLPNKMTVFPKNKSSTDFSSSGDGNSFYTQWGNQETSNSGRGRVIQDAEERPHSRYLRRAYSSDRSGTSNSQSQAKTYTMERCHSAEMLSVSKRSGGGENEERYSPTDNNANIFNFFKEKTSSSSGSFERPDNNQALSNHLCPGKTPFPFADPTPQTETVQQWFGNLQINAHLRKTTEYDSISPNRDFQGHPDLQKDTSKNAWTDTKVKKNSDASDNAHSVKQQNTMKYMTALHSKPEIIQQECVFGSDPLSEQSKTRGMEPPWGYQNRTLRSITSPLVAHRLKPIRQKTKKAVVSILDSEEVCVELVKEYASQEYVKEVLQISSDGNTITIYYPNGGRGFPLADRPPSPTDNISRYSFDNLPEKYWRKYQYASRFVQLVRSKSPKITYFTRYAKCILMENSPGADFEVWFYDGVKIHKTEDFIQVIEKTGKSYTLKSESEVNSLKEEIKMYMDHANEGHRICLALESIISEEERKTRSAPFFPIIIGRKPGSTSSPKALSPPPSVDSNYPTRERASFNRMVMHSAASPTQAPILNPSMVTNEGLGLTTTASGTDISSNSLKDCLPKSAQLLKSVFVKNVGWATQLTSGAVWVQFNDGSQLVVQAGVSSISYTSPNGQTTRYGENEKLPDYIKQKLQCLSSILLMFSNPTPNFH

[6] = kinase ABL(T315I), 1 μM compound

## CC(C)(C)c1nc(-c2cccc(NS(=O)(=O)c3c(F)cccc3F)c2F)c(-c2ccnc(N)n2)s1 [dabrafenib]
[1]
  targetedness (standardized logIC50 difference): -4.96

## CCCS(=O)(=O)Nc1ccc(F)c(C(=O)c2c[nH]c3ncc(-c4ccc(Cl)cc4)cc23)c1F [vemurafenib]
[2]; [6]
  %-inhibition, ABL(T315I): 7%

## Cc1nc(Nc2ncc(C(=O)Nc3c(C)cccc3Cl)s2)cc(N2CCN(CCO)CC2)n1 [dasatinib]
[3]
  %-inhibition of PAK3: -1.28%

## O=S(=O)(c1cccc2cnccc12)N1CCCNCC1 [fasudil]
[2]; [6]
  %-inhibition, ABL(T315I): 1.7%

## CO[C@H]1C[C@@H]2CC[C@@H](C)[C@@](O)(O2)C(=O)C(=O)N2CCCC[C@H]2C(=O)O[C@H]([C@H](C)C[C@@H]2CC[C@@H](OCCO)[C@H](OC)C2)CC(=O)[C@H](C)/C=C(\C)[C@@H](O)[C@@H](OC)C(=O)[C@H](C)C[C@H](C)/C=C/C=C/C=C/1C [everolimus]
FKBP12
  IC50: ~2 nM

## Cc1ccc(Nc2nccc(N(C)c3ccc4c(C)n(C)nc4c3)n2)cc1S(N)(=O)=O [pazopanib]
[4]; kinase CTK, compound at 1 μM
  %-inhibition of CTK: 4.69%
[5]; kinase PLK4, 1 μM
  %-inhibition of PLK4: 72%
[3]
  %-inhibition of PAK3: 6%

## CNC(=O)c1cc(Oc2ccc(NC(=O)Nc3ccc(Cl)c(C(F)(F)F)c3)c(F)c2)ccn1 [regorafenib]
[2]; [6]
  %-inhibition, ABL(T315I): 66%

## CCN(CC)CCNC(=O)c1c(C)[nH]c(/C=C2\C(=O)Nc3ccc(F)cc32)c1C [sunitinib]
[4]; kinase CTK, compound at 1 μM
  %-inhibition of CTK: 28%
[5]; kinase PLK4, 1 μM
  %-inhibition of PLK4: 58%

## CO[C@H]1C[C@@H]2CC[C@@H](C)[C@@](O)(O2)C(=O)C(=O)N2CCCC[C@H]2C(=O)O[C@H]([C@H](C)C[C@@H]2CC[C@@H](OC(=O)C(C)(CO)CO)[C@H](OC)C2)CC(=O)[C@H](C)/C=C(\C)[C@@H](O)[C@@H](OC)C(=O)[C@H](C)C[C@H](C)/C=C/C=C/C=C/1C [temsirolimus]
FKBP12
  IC50: ~2 nM

## CS(=O)(=O)CCNCc1ccc(-c2ccc3ncnc(Nc4ccc(OCc5cccc(F)c5)c(Cl)c4)c3c2)o1 [lapatinib]
[4]; kinase CTK, compound at 1 μM
  %-inhibition of CTK: -0.699%
[5]; 1 µM
  %-inhibition of PLK4: -4.47%
[3]
  %-inhibition of PAK3: 4.27%
[2]; [6]
  %-inhibition, ABL(T315I): 9%

## N#CC[C@H](C1CCCC1)n1cc(-c2ncnc3[nH]ccc23)cn1 [ruxolitinib]
[2]; 1 µM
  %-inhibition, ABL(T315I): 4%

## Cc1cn(-c2cc(NC(=O)c3ccc(C)c(Nc4nccc(-c5cccnc5)n4)c3)cc(C(F)(F)F)c2)cn1 [nilotinib]
[4]; 1 µM
  %-inhibition of CTK: 7%
[5]; kinase PLK4, 1 μM
  %-inhibition of PLK4: 21%
[3]
  %-inhibition of PAK3: -4%

## C#Cc1cccc(Nc2ncnc3cc(OCCOC)c(OCCOC)cc23)c1 [erlotinib]
[4]; 1 µM
  %-inhibition of CTK: 22%
[5]; 1 µM
  %-inhibition of PLK4: 9%
